Tests used:
ISY (C. roseus) = target: T1, ISY (C. roseus) (Catharanthus roseus, UniProt K7WDL7); assay: end point assay, GC-MS of products; assay type: biochemical; settings: 500 μM 8-oxogeranial, 1 mM NADPH, 200 mM MOPS pH 7.0, 100 mM NaCl, 0.5% THF, 30 °C, 3 h; positive control
T1 construct: positive control; construct not described here; dimer 83 kDa

NcISY2 = target: T2, NcISY2 (Nepeta cataria, UniProt A0A221J5X1); assay: end point assay, GC-MS of products; assay type: biochemical; settings: 500 μM 8-oxogeranial, 1 mM NADPH, 200 mM MOPS pH 7.0, 100 mM NaCl, 0.5% THF, 0.5 μM enzyme, 30 °C, 3 h
T2 construct: gene ISY2; N-terminal His-tag (pOPINF), E. coli soluBL21 (DE3), Ni-NTA and gel filtration; not fully homogeneous; dimer fraction
T2 sequence (A0A221J5X1 2-397): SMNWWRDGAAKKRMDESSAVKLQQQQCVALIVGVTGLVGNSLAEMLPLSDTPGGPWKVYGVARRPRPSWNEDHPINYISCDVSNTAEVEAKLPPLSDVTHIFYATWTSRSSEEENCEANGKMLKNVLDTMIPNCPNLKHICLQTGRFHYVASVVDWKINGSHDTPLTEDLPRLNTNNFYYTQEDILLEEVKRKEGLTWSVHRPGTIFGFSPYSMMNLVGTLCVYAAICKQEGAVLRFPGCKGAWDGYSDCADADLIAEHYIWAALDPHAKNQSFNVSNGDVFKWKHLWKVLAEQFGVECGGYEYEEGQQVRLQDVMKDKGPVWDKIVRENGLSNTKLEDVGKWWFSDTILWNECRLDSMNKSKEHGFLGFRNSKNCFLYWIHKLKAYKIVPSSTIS

T1 sequence (K7WDL7 whole entry): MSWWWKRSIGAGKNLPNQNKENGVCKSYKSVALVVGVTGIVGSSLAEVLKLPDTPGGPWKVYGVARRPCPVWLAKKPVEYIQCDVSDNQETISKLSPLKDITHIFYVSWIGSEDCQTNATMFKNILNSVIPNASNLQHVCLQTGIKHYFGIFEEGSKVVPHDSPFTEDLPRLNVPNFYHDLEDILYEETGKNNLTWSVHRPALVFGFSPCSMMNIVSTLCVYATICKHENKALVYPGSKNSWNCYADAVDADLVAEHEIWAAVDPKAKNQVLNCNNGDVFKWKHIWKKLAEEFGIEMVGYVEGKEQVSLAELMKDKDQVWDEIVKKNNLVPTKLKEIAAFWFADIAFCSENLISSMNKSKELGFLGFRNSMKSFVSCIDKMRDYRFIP

C/C(C=O)=C\CC/C(C)=C/C=O [8-oxogeranial]
end point assay, GC-MS of products (ISY (C. roseus)): a positive control was conducted with ISY (C. roseus) | end point assay, GC-MS of products (NcISY2): the other (NcISY2 and NmISY2) has robust catalytic activity toward the 8-oxogeranial substrate

Reference: PMC5739345, “Identification of iridoid synthases from Nepeta species: Iridoid cyclization does not determine nepetalactone stereochemistry” (Phytochemistry, 2018)
